According to patent US4161598A, “1-Oxygenated-2,6-methano-3-benzazocines” (Sterling Drug Inc., priority 1977, dated 1979):
Like-named read-outs stand apart in the source and are kept apart here.

Columns and labels:
[1] = tested on: meperidine; experiment: meperidine antagonist activity in the rat; conditions: as the free base
[2] = tested on: morphine; experiment: morphine antagonist activity in the rat; conditions: as the free base
[3] = Ziering reference; all tests other than writhing; cited from earlier work
[4] = tested on: bradykinin; experiment: Anti-bradykinin Test; format: in vivo, Rats; conditions: Rattus norvegicus, 2 h
Method: This is a secondary evaluation of analgesic activity. […] The threshold dose of bradykinin required for production of the response is determined for each animal, and is readministered at fixed intervals during a two-hour period following the subcutaneous or oral administration of test compounds. In the control response marked rotation of the head and flexion of the forepaw are each scored +2, for a total response score (TRS) of +4. For post-medication scoring any decrease in head rotation or paw flexion from control is each scored +1, rather than +2, while no movement of either the head or paw is each scored 0. Therefore, the TRS following any bradykinin challenge can vary from 0 to 4. Animals whose TRSs are 0-0, 0-+1 or +1-0 after any two consecutive bradykinin challenges during the two-hour post-medication period are scored protected. […] ED50 values of active compounds are estimated by probit analysis of quantal scores from 4 or more dosage levels using 5 animals per dose. In addition the average TRSs obtained at each test interval with each treatment are plotted to permit examination of time-effect relationships and to provide a rough expression of drug effect using graded data. A vehicle-pretreated control animal is tested daily. Synthetic bradykinin from Sandoz Pharmaceuticals is diluted with saline to the proper concentrations for determination of threshold doses for producing the response. All bradykinin injections are made at a constant volume of 0.2 ml. per rat.

[5] = tested on: acetylcholine; experiment: Anti-acetylcholine Writhing Test; format: in vivo, mice; conditions: Mus musculus, 20 min
Method: This response has also been called writhing. Animals are pretreated with test compounds (20 minutes for both subcutaneous and oral routes) and observed for two minutes immediately following the administration of acetylcholine. Mice not responding during the two-minute observation period are scored protected while those responding one or more times are scored not protected. Test compounds are screened at doses of 75 and 25 mg./kg. subcutaneously or 150 and 50 mg./kg. orally. […] ED50 values for active compounds are estimated by probit analysis of quantal scores for 4 or more dosage levels using 15 animals per dose. Vehicle-pretreated control animals are tested concurrently with each run of 15 experimental animals.

[6] = tested on: morphine; experiment: Tail-flick Antagonist Test against morphine; conditions: Rattus norvegicus
[7] = tested on: thermal stimulus applied to the tail; experiment: Tail-flick Agonist Test; format: in vivo, Rats; conditions: for ED50: Rattus norvegicus, sc, 0.5 h; for activity as agonist: tail-flick test, result in words
Method: Rats normally respond to a thermal stimulus applied to the tail by flicking their tails out from under the heat source. The intensity of the stimulus utilized is one which produces control response-times (CRT) of 2-4 seconds. Experimental response-times (ERT) are determined 30 minutes after subcutaneous injections and 60 minutes after oral medications. […] Therefore, the maximum possible increase (MPI) in response-time for any given animal is 20 minus the CRT. The average percent effect, or percent of the maximum possible increase (%MPI) obtained after any given test compound treatment is calculated by the formula [formula] […] ED50 or ED80 values of active compounds are obtained by the Miller and Tainter [Proc. Soc. Exptl.

[8] = tested on: narcotics; experiment: Tail-flick Antagonist Test, narcotic not specified
[9] = tested on: ethylenediaminetetraacetic acid (EDTA); experiment: EDTA Antinociceptive Test; format: in vivo, guinea pig; conditions: Cavia porcellus, sc, 0.5 h; subcutaneous; reduces response score to 6 or less
Method: This is also a secondary evaluation of analgesic activity. The test animal is the guinea pig. A threshold intradermal dose of ethylenediaminetetraacetic acid (EDTA) which can reproducibly elicit a cumulative response score of 12-18 discrete episodes of jumping, rearing, running, vocalization and biting or scratching at the site of injection within 40 seconds after challenge is determined for each animal. Thirty minutes after the administration of saline or test compound to 6-7 animals per dose, each animal is again challenged with its own threshold dose of EDTA. An effective drug dose is considered to be one which reduces the response score to 6 or less.

[10] = tested on: analgesic activity; experiment: Analgesic activity, summary of the foregoing tests in experimental animals; format: in vivo; conditions: summary of the foregoing test results
Method: As stated above the compounds of Formula I are useful as analgesics and mostly also useful as narcotic antagonists as shown by tests in experimental animals. As presumptive tests of analgesia the anti-acetylcholine writhing, anti-phenylquinone writhing, anti-bradykinin and EDTA anti-nociceptive tests are carried out as follows: […]

[11] = tested on: phenazocine; experiment: Tail-flick Antagonist Test against phenazocine; conditions: Rattus norvegicus
[12] = tested on: phenyl-p-quinone (phenylquinone); experiment: Anti-phenylquinone Writhing Test; format: in vivo, mice; conditions: Mus musculus
Method: This test is used to confirm the anti-acetylcholine writhing test. The ability of compounds to prevent phenyl-p-quinone (phenylquinone)-induced writhing in mice is determined in this test. […] Animals are pretreated with test compounds (15 minutes for subcutaneous route, 30 minutes for oral route) and observed for three one-minute intervals during the 5-12 minutes following administration. Mice responsing fewer than three times during the three one-minute observation periods are scored protected while those responding three or more times are scored not protected. Test compounds are screened using 10-14 animals per treatment, usually at doses of 75-100 mg./kg. subcutaneously or 150-200 mg./kg. orally. […] ED50 values for active compounds are estimated by probit analysis of quantal scores for 3-5 dosage levels using 14-30 animals per dose. Vehicle-pretreated control animals are tested daily.

[13] = tested on: meperidine; experiment: Tail-flick Antagonist Test against meperidine; conditions: Rattus norvegicus
[14] = po, read-out: ED50 (95% Confidence Limits), Oral
[15] = sc, read-out: ED50 (95% Confidence Limits), Subcutaneous
[16] = po, oral, read-out: ED50 (95% Confidence Limits), Oral
[17] = sc, subcutaneous, base, read-out: Subcutaneous ED50 (95% Confidence Limits)
[18] = sc, subcutaneous, free base or acid addition salt, read-out: ED50 (95% Confidence Limits), Subcutaneous
[19] = subcutaneous, 120 Mg./Kg. of Base
[20] = summary of the foregoing test results
[21] = po, 0.5 h, read-out: ED50 (95% Confidence Limits), Oral
[22] = sc, 0.25 h, read-out: ED50 (95% Confidence Limits), Subcutaneous
[23] = tail-flick antagonist test, result in words
[24] = sc, subcutaneous, form tested not given, read-out: Subcutaneous ED50 (95% Confidence Limits)
[25] = subcutaneously, unit inferred, read-out: agonist ED50

COc1ccc2c(c1)[C@]1(C)CCN(C)[C@H](C2=O)[C@@H]1C (relative stereo) [Compound 12]
activity against meperidine [1]: weakly active
activity against morphine [2]: inactive

COc1ccc2c(c1)[C@]1(C)CCN(C)[C@@H]([C@@H]1C)[C@@]2(O)c1ccccc1 (relative stereo) [Compound 13]
activity in all other tests [3]: inactive

COc1ccc2c(c1)[C@]1(C)CCN(C)[C@@H]([C@@H]1C)[C@]2(C)O (relative stereo) [Compound 14]
activity in all other tests [3]: inactive

C[C@H]1[C@H]2C(=O)c3ccc(O)cc3[C@]1(C)CCN2CC1CC1 (relative stereo) [Example 1, 1,2,3,4,5,6-hexahydro-1-oxo-3-cyclopropylmethyl-8-hydroxy-6(eq),11(ax)-dimethyl-2,6-methano-3-benzazocine]
ED50 [4, 14]: 10 mg/kg
ED50 [4, 15]: 0.069 mg/kg
ED50 [5, 16]: 12 mg/kg
ED50 [5, 17]: 0.12 mg/kg
ED50 [5, 18]: 0.16 mg/kg
ED50 ([5]; sc, subcutaneous, hydrochloride salt, read-out: Subcutaneous ED50 (95% Confidence Limits)): 0.16 mg/kg
ED50 ([5]; sc, subcutaneous, methanesulfonate salt, read-out: Subcutaneous ED50 (95% Confidence Limits)): 0.16 mg/kg
ED50 ([6]; po, 20 min, read-out: AD50 (95% Confidence Limits) Against Morphine, Oral): 91 mg/kg
ED50 ([6]; sc, 10 min, read-out: AD50 (95% Confidence Limits) Against Morphine, Subcutaneous): 4.9 mg/kg
ED50 ([6]; sc, 10 min, read-out: Subcutaneous AD50 (95% Confidence Limits) Against Morphine): 4 mg/kg
Percent Inhibition of Response, Oral ([7]; oral, 200 Mg./Kg. of Base): 11.2%
dead ([7]; oral, 200 Mg./Kg. of Base): 1/6
righting reflex ([7]; oral, 200 Mg./Kg. of Base): partial loss
salivation ([7]; oral, 200 Mg./Kg. of Base): slight
Percent Inhibition of Response, Subcutaneous [7, 19]: 2.3%
activity (observed side effect) [7, 19]: decreased
observed side effect [7, 19]: atoxia
narcotic antagonist activity [8, 20]: weak narcotic antagonist activity
minimal effective dose [9]: 0.03 mg/kg
analgesic activity [10]: strong analgesic activity
ED50 ([11]; po, 20 min, read-out: AD50 (95% Confidence Limits) Against Phenazocine, Oral): 63 mg/kg
ED50 ([11]; sc, 10 min, read-out: AD50 (95% Confidence Limits) Against Phenazocine, Subcutaneous): 5 mg/kg
ED50 ([11]; sc, 10 min, read-out: Subcutaneous AD50 (95% Confidence Limits) Against Phenazocine): 4.3 mg/kg
ED50 [12, 21]: 15.2 mg/kg
ED50 [12, 22]: 0.16 mg/kg
ED50 ([13]; po, 20 min, read-out: AD50 (95% Confidence Limits) Against Meperidine, Oral): 78 mg/kg
ED50 ([13]; sc, 10 min, read-out: AD50 (95% Confidence Limits) Against Meperidine, Subcutaneous): 7.2 mg/kg
ED50 ([13]; sc, 10 min, read-out: Subcutaneous AD50 (95% Confidence Limits) Against Meperidine): 2 mg/kg

CC[C@]12CCN(CC3CC3)[C@H](C(=O)c3ccc(O)cc31)[C@@H]2C (relative stereo) [Example 29, 1,2,3,4,5,6-hexahydro-1-oxo-3-cyclopropylmethyl-8-hydroxy-6(eq)-ethyl-11(ax)-methyl-2,6-methano-3-benzazocine]
ED50 [4, 14]: 11 mg/kg
ED50 [4, 15]: 0.053 mg/kg
ED50 [5, 16]: 7.6 mg/kg
ED50 [5, 17]: 0.045 mg/kg
ED50 [5, 18]: 0.074 mg/kg
ED50 ([7]; read-out: Tail-flick Agonist Subcutaneous ED50): 9 ± 10 mg/kg
ED50 ([7]; subcutaneously, read-out: agonist ED50): 9 ± 10 mg/kg
narcotic activity [7, 20]: no narcotic activity
activity as agonist [7]: active
narcotic antagonist activity [8, 20]: weak narcotic antagonist activity
narcotic antagonist activity [8, 23]: Inactive
minimal effective dose [9]: 0.025 mg/kg
analgesic activity [10]: strong analgesic activity
ED50 [12, 21]: 9.1 mg/kg
ED50 [12, 22]: 0.03 mg/kg

C[C@H]1[C@H]2C(=O)c3ccc(O)cc3[C@]1(C)CCN2CCc1ccccc1 (relative stereo) [Example 34, 1,2,3,4,5,6-hexahydro-1-oxo-3-(2-phenylethyl)-8-hydroxy-6(eq),11(ax)-dimethyl-2,6-methano-3-benzazocine]
ED50 [5, 24]: 4.2 mg/kg
ED50 [7, 25]: 56 ± 9.1 mg/kg
activity as agonist [7]: weakly active
narcotic antagonist activity [8, 23]: inactive

C[C@H]1[C@H]2C(=O)c3ccc(O)cc3[C@]1(C)CCN2CC1CCC1 (relative stereo) [Example 35B, 1,2,3,4,5,6-hexahydro-1-oxo-3-cyclobutylmethyl-8-hydroxy-6(eq),11(ax)-dimethyl-2,6-methano-3-benzazocine]
ED50 [5, 24]: 3.9 mg/kg
ED50 [7, 25]: 200 ± 49 mg/kg
activity as agonist [7]: weakly active
narcotic antagonist activity [8, 23]: inactive
